# Test results taken from article PMC11003484 (Journal of Enzyme Inhibition and Medicinal Chemistry, 2023).
# Structures can show the parent of a compound that is named as a salt.
# What was measured:
# HEV helicase [1] = biological target: T1, HEV helicase (Hepatitis E virus genotype 1, UniProt P33424); assay: biochemical; assay type: biochemical
# T1 construct: The HEV helicase (735 bp) was amplified from the HEV (genotype 1; AF444002.1) cDNA clone; made in house; host or cells: E. coli BL21(DE3), pET28a; solubilised from inclusion bodies with NLS
# Excerpt: (§1) The HEV helicase (735 bp) was amplified from the HEV (genotype 1; accession no. AF444002.1) cDNA clone pSK-HEV-2[23]^,[25] using the forward and reverse primers sets (5′agcc|atatgggttgccgtgtgacc3′ and 5′gtgc|tcgagttaaaagaagttgttcac3′). Following standard laboratory procedures, the amplified gene was cloned in the pET28a vector between NdeI and Xho I restriction sites. The cloning was verified using colony PCR using Nde I and Xho I (New England BioLabs, Ipswich, MA) double digestion and DNA sequencing. The recombinant plasmid was further transformed to BL21(DE3) using the routine protocol for expressing HEV helicase. The transformed recombinant BL21 cells were expanded until the culture’s optical density (OD600 nm) reached 0.6 before being induced with 0.4 mM IPTG (Sigma Aldrich, St. Louis, MO) at 26 °C for 4 h. The protein solubilisation was carried out as described previously. The Immobilised Metal Affinity Chromatography (IMAC) was used to purify the solubilised protein, and the protein was eluted in a buffer containing 10 mM Tris–Cl (pH 8.0), (Sigma Aldrich), 100 mM NaCl (Sigma Aldrich), 250 mM imidazole, and 0.1% N-lauryl Sarcosine (NLS; Sigma Aldrich). Further, the buffer of purified protein was exchanged with 10 mM Tris–Cl (pH 8.0), 100 mM NaCl, and 0.08% NLS before proceeding with enzyme assays.
# The NTPase activity of the HEV helicase enzyme was performed using a colorimetric-based Malachite green test[27]. The assay followed the manufacturer’s instructions The malachite green assay was performed as per the manufacturer’s protocol (Sigma Aldrich) cat no MAK307-1KT. The assay operates on the phosphate release from the reaction between malachite green and molybdate (AM/MG reagent) as the basis for complexation. […] The absorbance was measured on plate reader and a standard curve was generated using known concentrations of phosphate ranging from 0 to 44 uM to correlate absorbance with released phosphate concentration. The absorbance was plotted on Y-axis against the phosphate concentration on X-axis, and a straight-line equation (Y = 0.02182 * X + 0.04158) was determined using linear regression in GraphPad Prism version 9.0 (Boston, MA). The graphs were plotted as a function of the concentration of phosphate released. The effects of pH, temperature, enzyme concentration, and substrate concentration on helicase enzyme activity were studied to optimise enzyme activity.
# Based on their docking score, hydrogen bonds, and protein–ligand interaction, the five selected compounds from virtual screening were tested for their ability to suppress NTPase activity. The putative inhibitors’ concentrations ranged from 0 to 10 µM during the optimisation-focused inhibition tests on the purified protein’s NTPase activity. […] The working reagent was added after the reaction mixture had been incubated at RT for 10 min, and the absorbance was measured at 600 nm.
# (§2) All the experiments were performed in triplicates, and the graphs were plotted using GraphPad Prism software (Boston, MA).
# HEV helicase [2] = biological target: T1, HEV helicase; assay: Double-stranded RNA unwinding activity / inhibition assay (fluorescence); assay type: biochemical; details: dsRNA unwinding, purified helicase, RT
# Excerpt: as §1, §2
# [3] = tested on: HEV replication (ORF2 expression); assay: microbe, parasite or virus in culture; assay type: cell-based, Hepatitis E Virus
# Excerpt: (§3) For transfection, pSHEV-3 (cDNA clone of HEV genotype 3; accession no. AY575859.1) was linearised using Xba I (New England BioLabs). The helicase region of GT1 and GT3 share greater than 90% sequence homology Sub-genomic HEV carrying luciferase gene (accession number JQ679013) was linearised for replicon assay with MluI. The linearised DNA was subjected to in vitro transcription, as mentioned previously[26]^,[36], and the RNA was transfected in Huh7 cells using Lipofectamine 3000 (Invitrogen, Carlsbad, CA). Briefly, a day before transfection, approximately 0.8 × 10^6 cells were seeded in each well of a six-well plate, and for HEV replicon assay, ∼5–7 × 10[3] cells were seeded in each well of 96 plate. After 24 h, the media was removed, the cells were washed twice with Opti-MEM media (Gibco™, Grand Island, NY), and the transfection mixture was prepared as mentioned earlier[25]^,[26]. The cells were incubated with a transfection mixture for 6–8 h at 37 °C.
# For IFA, the cells were grown on a 96-well plate and transfected using Lipofectamine, as mentioned above. […] The cells were incubated for 4–5 d, and subsequently, the media was removed, and the cells were carefully washed twice with 1X PBS. The cells were fixed with 4% paraformaldehyde (PFA) and incubated for 5–10 min at RT. After fixing, the cells were again washed with 1× PBS, and the permeabilisation was performed using PBS with 0.1% Triton-X and 0.1% BSA (Bovine Serum Albumin, HiMedia, Mumbai, India). The blocking was performed using 3% BSA for 1 h at RT. After blocking, the cells were incubated with anti-HEV-ORF2 (Dilution, 1:400) antibody against the HEV capsid protein for 1 h at RT. The cells were washed thrice with PBS-T (Tween-20, 0.05%, Sigma Aldrich). The Goat-Anti-Rabbit Alexa Fluor 488 (Thermo Fisher) was used as a secondary antibody, and the cells were incubated for 30 min in the dark. The cells were washed thrice with PBS-T and stained with DAPI (Invitrogen™). […]
# Huh7 cells = tested on: Huh7 cells
# Protocol: To study the cell viability, Huh7 cells were grown in Dulbecco’s Modified Eagle Medium (DMEM, Gibco™, Life Technologies, Grand Island, NY), supplemented with 10% Foetal Bovine Serum (FBS, Gibco™, Qualified, Brazil origin). Further, Huh7 cells were seeded in a 96-well plate (∼0.7 × 10^4 cells/well) and incubated at 37 °C in a humidified 5% CO2 incubator. […] After 4 d, the MTT (3-dimethylthiazol-2-yl-diphenyl tetrazolium bromide) assay was performed per the manufacturer’s protocol (Himedia Laboratories, Thane, India). Cell viability percentage was calculated by comparing treated cells with untreated cells.
# p6 HEV-Luc Replicon = assay: HEV replicon (p6 HEV-Luc) luciferase assay in Huh7 cells; assay type: cell-based; details: Hepatitis E virus, Huh-7, 72 h, read-out: IC50 HEV replicon luciferase activity
# Excerpt: as §3
# Following transfection, the cells were incubated with inhibitors for 72 h at 37 °C in a CO2 incubator. […] The cells were then lysed according to the manufacturer’s protocol, and the luminescence was recorded on Tecan Spark® (Tecan Trading AG, Switzerland) multimode plate reader. In replicon, the luminescence was normalised w.r.t to uninfected (0%) and untreated cells (100%).
# [4] = read-out: IC50 (µM) NTPase activity
# T1 sequence (P33424 960-1204): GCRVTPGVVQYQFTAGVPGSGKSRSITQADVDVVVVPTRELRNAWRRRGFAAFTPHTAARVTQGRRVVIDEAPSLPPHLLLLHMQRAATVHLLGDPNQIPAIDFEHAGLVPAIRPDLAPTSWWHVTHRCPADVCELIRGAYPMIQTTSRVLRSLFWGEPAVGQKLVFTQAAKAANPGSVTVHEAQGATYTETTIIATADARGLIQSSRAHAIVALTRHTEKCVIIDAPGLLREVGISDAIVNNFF
SMILES,IC50 (HEV helicase [1]; [4]) [µM],IC50 (HEV helicase [2]) [µM],also measured
Nc1nc2c(ncn2C2OC(COP(=O)(O)OP(=O)(O)OP(=O)(O)O)C(O)C2O)c(=O)[nH]1 (centres unmarked) [GTP],–,–,"Km (HEV helicase [1]; read-out: Km (substrate, NTPase activity), GTP 0 to […], Michaelis-Menten fit): 350 µM"
"O=C(O)c1cc(=O)c2c(OCC(O)COc3cccc4oc(C(=O)O)cc(=O)c34)cccc2o1 [Disodium cromoglycate, disodium cromoglycate]",14.8,39.8,–
"COc1cccc2c1C(=O)c1c(O)c3c(c(O)c1C2=O)C[C@@](O)(C(C)=O)C[C@@H]3O[C@H]1C[C@H](N)[C@H](O)[C@H](C)O1 [Daunorubicin HCL, daunorubicin HCL]",7.66,8.25,–
"CN1c2c(nc(N)[nH]c2=O)NC[C@@H]1CNc1ccc(C(=O)N[C@@H](CCC(=O)O)C(=O)O)cc1 [Levomefolic acid, 5-methyltetrahydrofolate (levomefolic acid)]",–,13.9,IC50 (HEV helicase [1]): 3.65 µM
C[C@]12C=CC(=O)C=C1CC[C@@H]1[C@@H]2[C@@H](O)C[C@@]2(C)[C@H]1CC[C@]2(O)C(=O)CO [Prednisolone],4.2,25.8,–
CN(Cc1cnc2nc(N)nc(N)c2n1)c1ccc(C(=O)N[C@@H](CCC(=O)O)C(=O)O)cc1 [Methotrexate],–,–,"HEV replication inhibition (IFA) ([3]; 50 nM Mtx): ~81%; fluorescence level (ORF2, IFA) ([3]; 100 nM methotrexate, untreated 100%): ~6%; inhibition at 0.1 µM ([3]; Hepatitis E virus, Huh-7, read-out: inhibition of HEV replication (IFA)): ~94%; Cytotoxicity (MTT assay) (Huh7 cells): < 100 nM; IC50 (p6 HEV-Luc Replicon): 0.0731 ± 0.0127 µM"
